Measured values as given in patent publication US20230121689A1, “CEPHALOSPORIN ANTIBACTERIAL COMPOUND AND PHARMACEUTICAL APPLICATION THEREOF” (priority 2020, published 2023).
Where two headings read alike, the source gives them in different places.

Assays:
Assay type in all cases: cell-based
[1] = system: Carbapenem-resistant Acinetobacter baumannii (CRAB, Acinetobacter baumannii); assay: Test Example 2: antibacterial activity test (MIC); details: ID-CAMHB, read-out: ID-CAMHB, MIC
Procedure: (§1) 1. The test compounds were dissolved in sterile normal saline, vortexed for uniformly mixing, and diluted in a 2-fold dilution with the sterile normal saline (11 concentration points in total). The test concentration range was 32-0.031 μg/mL, and two duplicate wells were set for each concentration. Additional wells without drug dosing were set as growth controls. 2. 4 μL of the diluent was added to 196 μL of the bacterial suspension in a 96-well plate (the bacterial count in the bacterial suspension was 2-8×10^5 colony forming units/mL). 3.
(§2) The minimum inhibitory concentration (MIC) assay was performed with reference to the Clinical and Laboratory Standards Institute (CLSI) guidelines.

[2] = system: Carbapenem-resistant Enterobacteriaceae (CRE, Klebsiella pneumoniae); assay: Test Example 2: antibacterial activity test (MIC); details: ID-CAMHB, read-out: ID-CAMHB, MIC
Procedure: as §1, §2

[3] = system: Carbapenem-resistant Pseudomonas aeruginosa (CRPA, Pseudomonas aeruginosa); assay: Test Example 2: antibacterial activity test (MIC); details: ID-CAMHB, read-out: ID-CAMHB, MIC
Procedure: as §1, §2

[4] = system: Control Strain Pseudomonas aeruginosa ATCC 27853; assay: Test Example 2: antibacterial activity test (MIC); details: ATCC27853, ID-CAMHB, ATCC 27853, read-out: ID-CAMHB, MIC
Procedure: as §1, §2

[5] = system: Control strain Escherichia coli ATCC 25922; assay: Test Example 2: antibacterial activity test (MIC); details: ATCC25922, ID-CAMHB, ATCC 25922, read-out: ID-CAMHB, MIC
Procedure: as §1, §2

[6] = system: Carbapenem-resistant Acinetobacter baumannii (CRAB); assay: Test Example 1: antibacterial activity test (MIC)
Procedure: (§3) The test compounds were diluted in a gradient and used for an MIC assay on the test strains. The test compounds at an initial assay concentration of 32 μg/mL were diluted in a 2-fold gradient (11 concentration points in total), and two duplicate wells were set for each concentration. Additional wells without drug dosing were set as growth controls. The minimum inhibitory concentration (MIC) assay was performed with reference to the Clinical and Laboratory Standards Institute (CLSI) guidelines.
(§4) After the frozen strains were subcultured, a single colony was picked and re-suspended in normal saline or sterile water in a tube. The bacterial suspension was vortexed and adjusted to 0.5 McF using a spectrophotometer at the wavelength of 530 nm. The bacterial solution was taken by a pipette, added to a culture medium, diluted and mixed well, and seeded to a bacterial assay plate.
(§5) The 96-well plate was affixed with a disposable sealing film, shaken and mixed well, and visually observed using a plate reader. The minimum concentration of the compounds capable of inhibiting the growth of bacteria was defined as MIC as compared to the growth controls.

[7] = system: Carbapenem-resistant Enterobacteriaceae (CRE); assay: Test Example 1: antibacterial activity test (MIC)
Procedure: as §3, §4, §5

[8] = system: Carbapenem-resistant Pseudomonas aeruginosa (CRPA); assay: Test Example 1: antibacterial activity test (MIC)
Procedure: as §3, §4, §5

[9] = FDA-CDC AR-BANK #0036 (strB, OXA-65, OXA-24, strA, sul2)
[10] = FDA-CDC AR-BANK #0052 (OXA-58, OXA-100, sul2)
[11] = FDA-CDC AR-BANK #0063 (OXA-23, OXA-65, OXA-24, sul2)
[12] = FDA-CDC AR-BANK #0070 (OXA-58, OXA-100, sul2)
[13] = FDA-CDC AR-BANK #0101 (strB, OXA-65, OXA-24, strA, sul2)
[14] = FDA-CDC AR-BANK #0361 (TEM-1; SHV-12; KPC-2)
[15] = FDA-CDC AR-BANK #0362 (TEM-1; SHV-11; KPC-2)
[16] = FDA-CDC AR-BANK #0363 (TEM-1; SHV-12; KPC-2)
[17] = FDA-CDC AR-BANK #0438 (aph(3′)-Ia, dfrA12, KPC-3, OmpK35, oqxA, oqxB, SHV-11)
[18] = FDA-CDC AR-BANK #0453 (KPC-3, OmpK35, oqxA, oqxB, SHV-11, TEM-1B)
[19] = FDA-CDC AR-BANK #0439 (aac(6′)-Il, aadA1b, BCR1, IMP-18, OXA-50)
[20] = FDA-CDC AR-BANK #0444 (aac(6′)-Il, dfrB5, OXA-4, tet(G), VIM-2)
[21] = FDA-CDC AR-BANK #0457 (aadA6, VIM-2)

CC(C)(O/N=C(\C(=O)N[C@@H]1C(=O)N2C(C(=O)O)=C(C[N+]3(CCNC(=N)c4ccc(O)c(O)c4Cl)CCCC3)CS[C@H]12)c1csc(N)n1)C(=O)O [Compound 9]
MIC [1, 9]: > 32 µg/mL
MIC [1, 10]: > 32 µg/mL
MIC [1, 11]: > 32 µg/mL
MIC [1, 12]: > 32 µg/mL
MIC [1, 13]: > 32 µg/mL
MIC [2, 14]: > 32 µg/mL
MIC [2, 15]: 16 µg/mL
MIC [2, 16]: > 32 µg/mL
MIC [2, 17]: > 32 µg/mL
MIC [2, 18]: > 32 µg/mL
MIC [3, 19]: > 32 µg/mL
MIC ([3]; FDA-CDC AR-BANK #0441 (KPC-2)): > 32 µg/mL
MIC [3, 20]: > 32 µg/mL
MIC [3, 21]: > 32 µg/mL
MIC [4]: > 32 µg/mL
MIC [5]: 16 µg/mL

CON(CC[N+]1(CC2=C(C(=O)O)N3C(=O)[C@@H](NC(=O)/C(=N\OC(C)(C)C(=O)O)c4csc(N)n4)[C@H]3SC2)CCCC1)C(=O)c1ccc(O)c(O)c1Cl [Compound 3]
MIC ([6]; CRAB strain No. 100085): 3 µg/mL
MIC ([6]; CRAB strain No. 100333): 6 µg/mL
MIC ([6]; CRAB strain No. 110440): 4 µg/mL
MIC ([6]; CRAB strain No. 110477): 4 µg/mL
MIC ([6]; CRAB strain No. 110517): 1 µg/mL
MIC ([7]; CRE strain No. 100109): 3 µg/mL
MIC ([7]; CRE strain No. 100186): 6 µg/mL
MIC ([7]; CRE strain No. 110502): > 32 µg/mL
MIC ([7]; CRE strain No. 110525): 16 µg/mL
MIC ([7]; CRE strain No. 311277): 8 µg/mL
MIC ([8]; CRPA strain No. 100110): 0.562 µg/mL
MIC ([8]; CRPA strain No. 110163): 1 µg/mL
MIC ([8]; CRPA strain No. 110224): 1 µg/mL
MIC ([8]; CRPA strain No. 110358): 2 µg/mL
MIC ([8]; CRPA strain No. 110390): 2 µg/mL

CC(C)(O/N=C(\C(=O)N[C@@H]1C(=O)N2C(C(=O)O)=C(C[N+]3(CCNC(=S)c4ccc(O)c(O)c4Cl)CCCC3)CS[C@H]12)c1csc(N)n1)C(=O)O [Compound 7]
MIC [1, 9]: 2 µg/mL
MIC [1, 10]: 0.25 µg/mL
MIC [1, 11]: > 32 µg/mL
MIC [1, 12]: 0.125 µg/mL
MIC [1, 13]: 4 µg/mL
MIC [2, 14]: 1 µg/mL
MIC [2, 15]: 1 µg/mL
MIC [2, 16]: 0.5 µg/mL
MIC [2, 17]: 2 µg/mL
MIC [2, 18]: 4 µg/mL
MIC [3, 19]: 8 µg/mL
MIC ([3]; FDA-CDC AR-BANK #0441 (KPC-2)): 8 µg/mL
MIC [3, 20]: 32 µg/mL
MIC [3, 21]: 1 µg/mL
MIC [4]: 0.125 µg/mL
MIC [5]: 0.125 µg/mL

CC(C)(O/N=C(\C(=O)N[C@@H]1C(=O)N2C(C(=O)O)=C(C[N+]3(CCN(O)C(=O)c4ccc(O)c(O)c4Cl)CCCC3)CS[C@H]12)c1csc(N)n1)C(=O)O [Compound 6]
MIC ([6]; CRAB strain No. 100085): 3 µg/mL
MIC ([6]; CRAB strain No. 100333): 6 µg/mL
MIC ([6]; CRAB strain No. 110440): 4 µg/mL
MIC ([6]; CRAB strain No. 110477): 3 µg/mL
MIC ([6]; CRAB strain No. 110517): 1 µg/mL
MIC ([7]; CRE strain No. 100109): 2 µg/mL
MIC ([7]; CRE strain No. 100186): 1.5 µg/mL
MIC ([7]; CRE strain No. 110502): 32 µg/mL
MIC ([7]; CRE strain No. 110525): 4 µg/mL
MIC ([7]; CRE strain No. 311277): 8 µg/mL
MIC ([8]; CRPA strain No. 100110): 0.063 µg/mL
MIC ([8]; CRPA strain No. 110163): 0.5 µg/mL
MIC ([8]; CRPA strain No. 110224): 0.625 µg/mL
MIC ([8]; CRPA strain No. 110358): 4 µg/mL
MIC ([8]; CRPA strain No. 110390): 2 µg/mL
